Reference: the supplement of paper PMC10307832

What was measured:
Assay in all cases: relative viability (nuclei count vs DMSO), 5 days (fraction); higher = more cells survive
XMD8-85 + Lapatinib = compound: CN1CCN(CC1)C2=CC(=C(C=C2)NC3=NC=C4C(=N3)N(C5=CC=CC=C5C(=O)N4C)C)OC [XMD8-85] + CS(=O)(=O)CCNCc1ccc(-c2ccc3ncnc(Nc4ccc(OCc5cccc(F)c5)c(Cl)c4)c3c2)o1 [Lapatinib] (partner 2 µM)
How it was run: (§1)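 Dosing by pin tool came one day after lung cancer cell lines were seeded in 1536-well plates, using either one drug or a fixed anchor-drug dose plus five library-drug doses (not always all listed) in √10 steps. After 5 days, nuclei were counted on 4× images. Relative viability is treated-well nuclei count divided by vehicle-well nuclei count, and values are medians of duplicate plates.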

XMD8-85 + Pictilisib = compound: CN1CCN(CC1)C2=CC(=C(C=C2)NC3=NC=C4C(=N3)N(C5=CC=CC=C5C(=O)N4C)C)OC [XMD8-85] + CS(=O)(=O)N1CCN(Cc2cc3nc(-c4cccc5[nH]ncc45)nc(N4CCOCC4)c3s2)CC1 [Pictilisib] (partner 1 µM)
How it was run: as §1

4EGI-1 + Lapatinib = compound: O=C(O)C(Cc1ccccc1[N+](=O)[O-])=NNc1nc(-c2ccc(Cl)c(Cl)c2)cs1 (mixture of isomers) [4EGI-1] + CS(=O)(=O)CCNCc1ccc(-c2ccc3ncnc(Nc4ccc(OCc5cccc(F)c5)c(Cl)c4)c3c2)o1 [Lapatinib] (partner 2 µM)
How it was run: as §1

4EGI-1 + Alpelisib = compound: O=C(O)C(Cc1ccccc1[N+](=O)[O-])=NNc1nc(-c2ccc(Cl)c(Cl)c2)cs1 (mixture of isomers) [4EGI-1] + Cc1nc(NC(=O)N2CCC[C@H]2C(N)=O)sc1-c1ccnc(C(C)(C)C(F)(F)F)c1 [Alpelisib] (partner 2 µM)
How it was run: as §1

Cell Line	relative viability (XMD8-85 + Lapatinib; first compound 0.08 µM)	relative viability (XMD8-85 + Lapatinib; first compound 0.253 µM)	relative viability (XMD8-85 + Lapatinib; first compound 0.8 µM)	relative viability (XMD8-85 + Lapatinib; first compound 2.53 µM)	relative viability (XMD8-85 + Lapatinib; first compound 8 µM)	relative viability (XMD8-85 + Pictilisib; first compound 0.08 µM)	relative viability (XMD8-85 + Pictilisib; first compound 0.253 µM)	relative viability (XMD8-85 + Pictilisib; first compound 0.8 µM)	relative viability (XMD8-85 + Pictilisib; first compound 2.53 µM)	relative viability (XMD8-85 + Pictilisib; first compound 8 µM)	relative viability (4EGI-1 + Lapatinib; first compound 0.5 µM)	relative viability (4EGI-1 + Lapatinib; first compound 1.581 µM)	relative viability (4EGI-1 + Lapatinib; first compound 5 µM)	relative viability (4EGI-1 + Lapatinib; first compound 15.81 µM)	relative viability (4EGI-1 + Lapatinib; first compound 50 µM)	relative viability (4EGI-1 + Alpelisib; first compound 0.5 µM)	relative viability (4EGI-1 + Alpelisib; first compound 1.581 µM)	relative viability (4EGI-1 + Alpelisib; first compound 5 µM)	relative viability (4EGI-1 + Alpelisib; first compound 15.81 µM)	relative viability (4EGI-1 + Alpelisib; first compound 50 µM)
EKVX	0.198	0.217	0.203	0.209	0.208	0.454	0.467	0.416	0.451	0.441	0.222	0.17	0.184	0.204	0.18	1.12	0.85	0.971	0.648	0.826
COR-L23	0.896	1.09	1.11	1.08	0.913	0.8	0.717	1.01	0.798	0.577	1.13	0.826	0.981	0.536	0.14	0.873	0.509	0.885	0.562	0.112
SW 1573	1.1	1.21	1.02	1.09	0.885	0.574	0.523	0.591	0.487	0.357	1.33	0.86	1.17	0.898	1.17	1.1	0.644	0.879	0.785	0.663
COR-L 105	0.366	0.341	0.407	0.342	0.348	0.429	0.415	0.359	0.353	0.303	0.421	0.38	0.371	0.343	0.293	1.2	0.818	1.04	0.89	0.599
NCI-H2023	0.649	0.755	0.957	1.02	0.516	0.199	0.274	0.259	0.265	0.178	1.37	–	0.964	0.217	0.0883	0.578	–	0.582	0.41	0.264
NCI-H1355	0.956	1.03	1.01	1.08	0.875	0.458	0.41	0.485	0.449	0.33	1.11	0.931	1.03	0.989	0.586	0.876	0.79	0.772	0.477	0.504
NCI-H1975	0.897	0.832	0.886	1.1	0.441	0.322	0.257	0.267	0.29	0.242	1.05	0.916	0.916	0.93	0.287	0.673	0.81	0.702	0.627	0.469
NCI-H1299	1	0.985	0.977	0.974	0.67	0.651	0.908	0.874	0.643	0.367	0.932	0.957	1.02	0.987	0.357	1.03	1.08	0.989	0.955	1.04
EPLC-272H	–	0.824	1.02	0.905	0.566	–	0.324	0.318	0.327	0.267	1.03	0.501	0.909	0.624	0.39	0.98	0.868	0.905	0.911	0.873
Calu-6	1.02	1.09	1.11	1.03	0.899	1.02	0.97	1.05	0.979	0.572	1.07	1	1.03	1	0.206	1.08	0.493	1.21	0.933	0.375
NCI-H1915	0.954	1.01	1.09	0.986	0.921	0.985	0.944	0.936	1.02	0.676	0.99	0.747	0.954	1.03	0.679	1.09	0.808	0.982	1.07	0.695
LXF-289	0.887	0.855	0.892	0.903	0.818	0.682	–	0.82	0.874	0.781	0.893	0.912	0.893	0.763	0.677	1.17	1.01	1.04	0.89	0.516
LK-2	0.691	0.994	0.771	0.552	0.653	0.531	0.439	0.574	0.361	0.458	1.04	–	0.978	0.984	0.745	1.22	–	1.12	1.21	0.897
H3255	0.26	0.237	0.233	0.243	0.167	0.565	0.465	–	0.531	0.414	0.254	0.228	0.259	0.222	0.279	0.861	0.641	0.756	0.473	0.561
NCI-H441	–	–	–	–	–	0.405	0.389	0.608	0.438	0.389	–	–	–	–	–	0.787	0.758	0.656	0.743	0.301
NCI-H1650	0.729	0.819	0.92	0.671	0.281	0.508	0.501	0.64	0.539	0.226	0.953	–	0.825	0.374	0.256	–	–	–	–	–
ChaGo-K-1	–	–	–	–	–	0.808	0.692	0.689	0.697	0.303	–	–	–	–	–	–	–	–	–	–
